# In patent publication US20260191807A1, “COMPOSITIONS AND METHODS FOR TREATMENT OF PRADER-WILLI SYNDROME” (ERX Pharmaceuticals Inc., priority 2022, published 2026):
# Assays:
# Type in all cases: in vivo
# [1] = system: C57BL/6-Magel2 mice; experiment: Body weights of C57BL/6 Magel2 mice during daily treatment; settings: 0.2 mg/kg IP QD; for Body weights (in grams) / Body weights (expressed as a percentage of day-1 weight): mean; for body weight lost from day 1 to day 21: vehicle +2.7%
# Description: (§1) In the study disclosed herein, celastrol at was administered intraperitoneally using a 30G needle at a dose of 0.2 mg/kg to five female Magel2 homozygous mice (−/−) and four male mice heterozygous for Magel2 (−/+). In addition, vehicle was administered to four male mice heterozygous for Magel2 (−/+) for 21 days.
# (§2) C57BL/6-Magel2 mice were bred for purpose from cryo recovery by Jackson Labs (Bar Harbor, ME) and arrived at the testing facility at age 8 weeks.
# (§3) All treatment volumes were 10 mL/kg. Utilizing the art-recognized nestlet shredding mouse model, the dose was administered by gavage (as capsule dosing is challenging in mice). Celastrol and the vehicle control were administered intraperitoneally using a 30G needle. All treatments were administered daily in the afternoon at 17:00 h, 1 hour before dark cycle from Day 1 to end of dosing.
# (§4) Celastrol was dissolved in 50% Solutol/50% DMAC. The resulting stock solution aliquoted and stored at −80° C. until treatment day. On the day of treatment an aliquot of the stock solution was thawed and diluted 1:20 with saline to obtain the desired dosing solution strength in 5%
# Mouse body weights were recorded from an Ohaus model CS 200 balance. Mice were weighed daily on Day 1 to Day 21. Body weight changes are expressed as grams and percent of the initial body weight (on Day 1, when treatments began).
# [2] = system: C57BL/6-Magel2 mice; experiment: Daily food intake of C57BL/6 Magel2 mice; settings: for Food intake (food weights in g/day): mean
# Description: as §1, §2, §3, §4
# Daily food intake was calculated based on remaining food weight compared to food weight on the previous day using an Ohaus model CS 200 balance.
# [3] = system: C57BL/6 mice; experiment: Deaths and clinical signs, C57BL/6 DIO study; settings: C57BL/6 DIO mice treated Day 1 to Day 15; Celastrol 0.2 mg/kg IP
# Description: C57BL/6 mice were treated with test compound (Celastrol) or controls as shown in the table below from Day 1 to Day 15. […] One mouse was excluded from the study because it appeared resistant to nestlet shredding prior to treatment.
# [4] = system: Magel2 mice; experiment: Deaths and clinical signs, Magel2 study; settings: 0.2 mg/kg IP for 21 days
# Description: as §1
# [5] = Day 13, Magel2 (−/+) heterozygous male mice
# [6] = Day 13, Magel2 (−/−) homozygous female mice
# [7] = Day 15, Magel2 (−/+) heterozygous male mice
# [8] = Day 15, Magel2 (−/−) homozygous female mice
# [9] = Day 17, Magel2 (−/+) heterozygous male mice
# [10] = Day 17, Magel2 (−/−) homozygous female mice
# [11] = Day 18, Magel2 (−/+) heterozygous male mice
# [12] = Day 18, Magel2 (−/−) homozygous female mice
# [13] = Day 20, Magel2 (−/+) heterozygous male mice
# [14] = Day 20, Magel2 (−/−) homozygous female mice
# [15] = Day 21, Magel2 (−/+) heterozygous male mice
# [16] = Day 21, Magel2 (−/−) homozygous female mice
compound,measurement,setting,value
CC1=C(O)C(=O)C=C2C1=CC=C1[C@@]2(C)CC[C@@]2(C)[C@@H]3C[C@](C)(C(=O)O)CC[C@]3(C)CC[C@]12C [Celastrol],Body weights (in grams),"[1]; Day 11, Magel2 (−/−) homozygous female mice",19.6 grams
same,Body weights (expressed as a percentage of day-1 weight),[1]; [5],94.2%
same,Body weights (in grams),[1]; [5],25.0 grams
same,Body weights (expressed as a percentage of day-1 weight),[1]; [6],93.5%
same,Body weights (in grams),[1]; [6],19.2 grams
same,Body weights (expressed as a percentage of day-1 weight),[1]; [7],93.9%
same,Body weights (in grams),[1]; [7],25.0 grams
same,Body weights (expressed as a percentage of day-1 weight),[1]; [8],95.0%
same,Body weights (in grams),[1]; [8],19.5 grams
same,Body weights (expressed as a percentage of day-1 weight),[1]; [9],85.0%
same,Body weights (in grams),[1]; [9],22.6 grams
same,Body weights (expressed as a percentage of day-1 weight),[1]; [10],85.3%
same,Body weights (in grams),[1]; [10],17.5 grams
same,Body weights (expressed as a percentage of day-1 weight),[1]; [11],83.0%
same,Body weights (in grams),[1]; [11],22.1 grams
same,Body weights (expressed as a percentage of day-1 weight),[1]; [12],85.6%
same,Body weights (in grams),[1]; [12],17.6 grams
same,Body weights (expressed as a percentage of day-1 weight),[1]; [13],84.5%
same,Body weights (in grams),[1]; [13],22.5 grams
same,Body weights (expressed as a percentage of day-1 weight),[1]; [14],88.8%
same,Body weights (in grams),[1]; [14],18.3 grams
same,Body weights (expressed as a percentage of day-1 weight),[1]; [15],83.8%
same,Body weights (in grams),[1]; [15],22.3 grams
same,Body weights (expressed as a percentage of day-1 weight),[1]; [16],89.6%
same,Body weights (in grams),[1]; [16],18.4 grams
same,body weight lost from day 1 to day 21,[1]; female homozygous Magel2 (−/−) mice,10.4%
same,body weight lost from day 1 to day 21,[1]; male heterozygous Magel2 (−/+) mice,16.2%
same,Food intake (food weights in g/day),"[2]; Day 1, Magel2 (−/+) heterozygous male mice, 0.2 mg/kg IP QD",6.6 g/day
same,Food intake (food weights in g/day),"[2]; Day 1, Magel2 (−/−) homozygous female mice, 0.2 mg/kg IP QD",5.9 g/day
same,Food intake (food weights in g/day),"[2]; Day 2, Magel2 (−/+) heterozygous male mice, 0.2 mg/kg IP QD",4.9 g/day
same,Food intake (food weights in g/day),"[2]; Day 2, Magel2 (−/−) homozygous female mice, 0.2 mg/kg IP QD",5.9 g/day
same,Food intake (food weights in g/day),"[2]; Day 4, Magel2 (−/+) heterozygous male mice, 0.2 mg/kg IP QD",7.0 g/day
same,Food intake (food weights in g/day),"[2]; Day 4, Magel2 (−/−) homozygous female mice, 0.2 mg/kg IP QD",6.4 g/day
same,Food intake (food weights in g/day),"[2]; Day 6, Magel2 (−/+) heterozygous male mice, 0.2 mg/kg IP QD",6.3 g/day
same,Food intake (food weights in g/day),"[2]; Day 6, Magel2 (−/−) homozygous female mice, 0.2 mg/kg IP QD",6.2 g/day
same,Food intake (food weights in g/day),"[2]; Day 8, Magel2 (−/+) heterozygous male mice, 0.2 mg/kg IP QD",5.2 g/day
same,Food intake (food weights in g/day),"[2]; Day 8, Magel2 (−/−) homozygous female mice, 0.2 mg/kg IP QD",4.6 g/day
same,Food intake (food weights in g/day),"[2]; Day 10, Magel2 (−/+) heterozygous male mice, 0.2 mg/kg IP QD",3.1 g/day
same,Food intake (food weights in g/day),"[2]; Day 10, Magel2 (−/−) homozygous female mice, 0.2 mg/kg IP QD",2.4 g/day
same,Food intake (food weights in g/day),"[2]; Day 11, Magel2 (−/+) heterozygous male mice, 0.2 mg/kg IP QD",3.9 g/day
same,Food intake (food weights in g/day),"[2]; Day 11, Magel2 (−/−) homozygous female mice, 0.2 mg/kg IP QD",1.4 g/day
same,Food intake (food weights in g/day),"[2]; Day 13, Magel2 (−/+) heterozygous male mice, 0.2 mg/kg IP QD",5.1 g/day
same,Food intake (food weights in g/day),"[2]; Day 13, Magel2 (−/−) homozygous female mice, 0.2 mg/kg IP QD",4.0 g/day
same,Food intake (food weights in g/day),"[2]; Day 15, Magel2 (−/+) heterozygous male mice, 0.2 mg/kg IP QD",5.9 g/day
same,Food intake (food weights in g/day),"[2]; Day 15, Magel2 (−/−) homozygous female mice, 0.2 mg/kg IP QD",5.2 g/day
same,Food intake (food weights in g/day),"[2]; Day 17, Magel2 (−/+) heterozygous male mice, 0.2 mg/kg IP QD",3.2 g/day
same,Food intake (food weights in g/day),"[2]; Day 17, Magel2 (−/−) homozygous female mice, 0.2 mg/kg IP QD",2.2 g/day
same,Food intake (food weights in g/day),"[2]; Day 18, Magel2 (−/+) heterozygous male mice, 0.2 mg/kg IP QD",2.5 g/day
same,Food intake (food weights in g/day),"[2]; Day 18, Magel2 (−/−) homozygous female mice, 0.2 mg/kg IP QD",3.2 g/day
same,Food intake (food weights in g/day),"[2]; Day 20, Magel2 (−/+) heterozygous male mice, 0.2 mg/kg IP QD",6.2 g/day
same,Food intake (food weights in g/day),"[2]; Day 20, Magel2 (−/−) homozygous female mice, 0.2 mg/kg IP QD",4.6 g/day
same,Food intake (food weights in g/day),"[2]; Day 21, Magel2 (−/+) heterozygous male mice, 0.2 mg/kg IP QD",5.0 g/day
same,Food intake (food weights in g/day),"[2]; Day 21, Magel2 (−/−) homozygous female mice, 0.2 mg/kg IP QD",11.1 g/day
same,Food intake (food weights in g/day),"[2]; Day −2 (before dosing), Magel2 (−/+) heterozygous male mice",5.0 g/day
same,Food intake (food weights in g/day),"[2]; Day −2 (before dosing), Magel2 (−/−) homozygous female mice",3.2 g/day
same,difference in food intake between the groups (in words),"[2]; treated Magel2 (−/+) and (−/−) groups versus vehicle, 0.2 mg/kg IP QD",not a significant difference in food intake
same,deaths or abnormal clinical signs,[3],No deaths or abnormal clinical signs
same,deaths or abnormal clinical signs,[4],No deaths or abnormal clinical signs
